{"source": "patent US9962384B1", "about": "“Levosimendan compound for preventing or treating tau-related diseases” (KOREA INSTITUTE OF SCIENCE AND TECHNOLOGY, priority 2017, dated 2018)", "key": {"[1]": {"biological_target": "T1, tau (Homo sapiens, UniProt P10636)", "T1 sequence (P10636 1-441 isoform P10636-8)": "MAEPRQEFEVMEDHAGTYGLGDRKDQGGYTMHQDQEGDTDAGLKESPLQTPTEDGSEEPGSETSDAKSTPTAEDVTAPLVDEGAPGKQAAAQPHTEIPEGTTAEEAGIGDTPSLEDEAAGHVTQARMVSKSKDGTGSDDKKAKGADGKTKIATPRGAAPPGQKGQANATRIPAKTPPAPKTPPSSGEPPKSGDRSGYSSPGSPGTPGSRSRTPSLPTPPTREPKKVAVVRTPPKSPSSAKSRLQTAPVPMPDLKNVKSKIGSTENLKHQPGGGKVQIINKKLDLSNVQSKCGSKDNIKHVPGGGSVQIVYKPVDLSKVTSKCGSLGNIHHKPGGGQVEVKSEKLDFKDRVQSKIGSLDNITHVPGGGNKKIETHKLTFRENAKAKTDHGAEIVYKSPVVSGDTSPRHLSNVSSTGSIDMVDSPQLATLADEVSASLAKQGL", "assay": "Tau phosphorylation by Western blot of tau-BiFC cell lysates", "type": "cell-based", "set-up": "fused on or other part: N-terminal and C-terminal non-fluorescent fragments of Venus fused to tau (BiFC reporter handles)", "details": "forskolin 30 μM, 36 hours", "experimental": "In order to confirm whether the levosimendan compound would show tau aggregation inhibitory activity by inhibiting tau phosphorylation, Tau-BiFC cells were treated with the tau aggregation inducer forskolin (treatment concentration: 30 μM) and the levosimendan compound (treatment concentration: 15 μM). After 36 hours, the tau-BiFC cell lysates were analyzed by Western blot analysis to measure tau phosphorylation."}, "[2]": {"test_system": "tau-BiFC cells", "assay": "Cell viability by cell nucleus staining with Hoechst", "type": "cell-based", "details": "forskolin 30 μM; for cytotoxicity / cell viability (number of nuclei stained with Hoechst): 10 μM compound, 48 hours", "experimental": "(§1) To screen a new tau aggregation inhibitor, tau-BiFC cell model making it possible to easily observe tau oligomer formation in living cells was treated an FDA-approved drug library (a total of 1018 compounds). As shown in a schematic view of FIG. 1, tau-BiFC cells were plated on a 384-well plate. On the next day, the tau-BiFC cells were treated with FDA-approved drugs (treatment concentration: 10 μM) together with the compound forskolin (treatment concentration: 30 μM) that activates tau kinase PKA to induce tau aggregation. After 46 hours, the tau aggregation inhibitory activities of the drugs were analyzed, and cell viability by the compounds was analyzed by cell nucleus staining with Hoechst. […] To further confirm the tau aggregation inhibitory activity of the selected levosimendan, tau-BiFC cells were treated with DMSO, MB or levosimendan (treatment concentration: 10 μM) together with the compound forskolin (treatment concentration: 30 μM) that activates tau kinase PKA to induce tau aggregation. At this time, methylene blue (MB) known to show tau aggregation inhibitory activity was used as a comparative compound (positive control). After 48 hours, the tau aggregation inhibitory activity of the compound was analyzed, and cell viability by the compound was analyzed by cell nucleus staining with Hoechst.\nFurthermore, it could be seen that the fluorescence value of the test group (levosimendan) decreased, similar to that of the positive control group (MB).\n(§2) In addition, in order to further confirm the tau aggregation inhibitory activity of the selected levosimendan compound in living cells, tau-BiFC cells were treated with the tau inducer forskolin (treatment concentration: 30 μM) together with 1, 3, 10, 30 or 100 μM of the levosimendan compound. After 48 hours, tau aggregation reactions in the cells were analyzed by analysis of tau-BiFC response, and cell viability was analyzed to determine the toxicity of the compound."}, "[3]": {"biological_target": "T1, tau", "assay": "Intracellular tau aggregation in tau-BiFC cell model (forskolin-induced)", "type": "cell-based", "set-up": "fused on or other part: N-terminal and C-terminal non-fluorescent fragments of Venus fused to tau (BiFC reporter handles)", "details": "forskolin 30 μM; for concentration dependence of tau-BiFC fluorescence value: 1-100 μM; for tau aggregation in tau-BiFC cells (Example 5, metabolites comparison): varying concentrations", "experimental": "Furthermore, the following examples were performed based on tau-BiFC cell model. The tau-BiFC cell model is a reliable system for monitoring the interaction between tau oligomers, and is a Venus protein-based BiFC method in which the N-terminal and C-terminal non-fluorescent fragments of Venus protein are fused to tau. A further detailed definition and method for the tau-BiFC cell model are as described in Korean Patent No. 10-1546485.\nas §1, §2\nThe levosimendan compound has two metabolite forms ([…] and activated (OR-1896)). […] Specifically, tau-BiFC cells were treated with varying concentrations of each of MB, levosimendan, OR-1855 and OR-1896 compounds together with the tau aggregation inducer forskolin (treatment concentration: 30 μM). After 48 hours, the extent of tau aggregation in the cells was analyzed."}, "[4]": {"biological_target": "T1, tau", "assay": "In vitro tau aggregation with ThS (Thioflavin S)", "type": "biochemical", "details": "Tau pre-Agg+100 uM DTT+0.1 mg/mL Heparin, 37° C.", "experimental": "(§3) Thus, whether the levosimendan compound would be involved in the tau aggregation process to inhibit tau aggregation was examined. Specifically, whether the levosimendan compound would inhibit the tau aggregation process was analyzed in vitro, and whether the levosimendan compound would prevent additional aggregation of aggregated tau and dissociate the aggregation was analyzed in vitro. The tau aggregation process (Tau pre-Agg+100 uM DTT+0.1 mg/mL Heparin, incubated at 37° C.) in vitro was treated with varying concentrations of the levosimendan compound, and the degree of tau aggregation was analyzed with ThS (Thioflavin S). The ThS is a dye capable of measuring tau aggregation in vitro in real time, and is used as a fluorescence probe that detects β-sheet aggregation."}, "[5]": {"test_system": "mouse cerebral cortical neuronal cells", "assay": "Neuronal cell protection against TauK18P301L damage", "type": "cell-based", "details": "10 μM, 2 hours before TauK18P301L 20 μg/mL; E18, DIV8", "text": "Whether the levosimendan compound would protect neuronal cells from neuronal cell damage was examined."}, "[6]": {"test_system": "tau kinase", "assay": "Tau kinase activity"}, "[7]": {"biological_target": "tau aggregates (Homo sapiens, UniProt P10636)", "sequence (P10636 1-441 isoform P10636-8)": "as above", "assay": "In vitro dissociation of tau aggregates", "type": "biochemical", "details": "Tau-Agg+100 uM DTT+0.1 mg/mL Heparin, 37° C., varying concentrations", "experimental": "as §3"}, "[8]": {"details": "15 μM, vs forskolin-treated cells"}}}
{"smiles": "CN(C)c1ccc2nc3ccc(=[N+](C)C)cc-3sc2c1", "note": "[MB, methylene blue]", "values": [{"measurement": "tau phosphorylation compared to forskolin-treated cells", "setting": "[1]", "result": "decreased compared to that in the forskolin-treated cells"}, {"measurement": "cytotoxicity / cell viability (number of nuclei stained with Hoechst)", "setting": "[2]", "result": "decreased"}, {"measurement": "cytotoxicity / cell viability (number of nuclei stained with Hoechst)", "setting": "[2]; listed as methylene blue", "result": "cytotoxicity higher than that of the levosimendan compound"}, {"measurement": "concentration dependence of tau-BiFC fluorescence value", "setting": "[3]; 48 hours", "result": "concentration-dependent decrease in the fluorescence value"}]}
{"smiles": "C[C@@H]1CC(=O)NN=C1c1ccc(N)cc1", "note": "[OR-1855]", "values": [{"measurement": "tau aggregation in tau-BiFC cells (Example 5, metabolites comparison)", "setting": "[3]; 48 hours", "result": "did not show tau aggregation inhibitory activity"}]}
{"smiles": "CC(=O)Nc1ccc(C2=NNC(=O)C[C@H]2C)cc1", "note": "[OR-1896]", "values": [{"measurement": "tau aggregation in tau-BiFC cells (Example 5, metabolites comparison)", "setting": "[3]; 48 hours", "result": "did not show tau aggregation inhibitory activity"}]}
{"smiles": "C[C@@H]1CC(=O)NN=C1c1ccc(NN=C(C#N)C#N)cc1", "note": "[levosimendan]", "values": [{"measurement": "tau phosphorylation decrease at Ser199", "setting": "[1]; [8]", "result": "about 34%"}, {"measurement": "tau phosphorylation decrease at Ser396", "setting": "[1]; [8]", "result": "about 35%"}, {"measurement": "tau phosphorylation compared to forskolin-treated cells", "setting": "[1]", "result": "decreased compared to that in the forskolin-treated cells"}, {"measurement": "IC50", "setting": "[4]", "result": 4.71, "unit": "µM"}, {"measurement": "damage to neuronal cells, neuronal cell morphology and neurite length", "setting": "[5]", "result": "decreased compared to that in the negative control group (DMSO) and the positive control group (MB)"}, {"measurement": "changes in tau kinase activity", "setting": "[6]", "result": "did not affect changes in tau kinase activity"}, {"measurement": "cell viability in drug library screening", "setting": "[2]; 10 μM, 46 hours", "result": "cell viability equal to that of drug-untreated normal cells"}, {"measurement": "tau-BiFC fluorescence value (RFU), tau aggregation inhibitory activity", "setting": "[3]; 10 μM compound, 48 hours", "result": "decreased compared to that of the negative control group (DMSO)"}, {"measurement": "tau aggregation inhibitory activity in drug library screening", "setting": "[3]; 10 μM, 46 hours, 384-well plate", "result": "tau aggregation inhibitory activity equal to that of methylene blue (MB)"}, {"measurement": "concentration dependence of tau-BiFC fluorescence value", "setting": "[3]; 48 hours", "result": "concentration-dependent decrease in the fluorescence value"}, {"measurement": "IC50", "setting": "[3]; 1, 3, 10, 30 or 100 μM compound, 48 hours, read-out: IC50 of decrease in tau-BiFC fluorescence value", "result": 2.2, "unit": "µM"}, {"measurement": "tau aggregation in tau-BiFC cells (Example 5, metabolites comparison)", "setting": "[3]; 48 hours", "result": "decreased similar to that in the positive control group (MB)"}, {"measurement": "effect on tau aggregates in vitro", "setting": "[7]", "result": "had the effect of dissociating tau aggregates"}]}
